This note sets out measurements from patent US10925876B2, “Methods for using triazolo-pyrazinyl soluble guanylate cyclase activators in fibrotic disorders” (Merck Sharp & Dohme Corp., priority 2016, dated 2021).

Molecules are shown by their SMILES.

The target in the assay is T1, sGC α1/β1 heterodimer (Homo sapiens, UniProt Q02108+Q02153).
T1 construct: expressed in transfected cells
T1 sequence (Q02108 1-690): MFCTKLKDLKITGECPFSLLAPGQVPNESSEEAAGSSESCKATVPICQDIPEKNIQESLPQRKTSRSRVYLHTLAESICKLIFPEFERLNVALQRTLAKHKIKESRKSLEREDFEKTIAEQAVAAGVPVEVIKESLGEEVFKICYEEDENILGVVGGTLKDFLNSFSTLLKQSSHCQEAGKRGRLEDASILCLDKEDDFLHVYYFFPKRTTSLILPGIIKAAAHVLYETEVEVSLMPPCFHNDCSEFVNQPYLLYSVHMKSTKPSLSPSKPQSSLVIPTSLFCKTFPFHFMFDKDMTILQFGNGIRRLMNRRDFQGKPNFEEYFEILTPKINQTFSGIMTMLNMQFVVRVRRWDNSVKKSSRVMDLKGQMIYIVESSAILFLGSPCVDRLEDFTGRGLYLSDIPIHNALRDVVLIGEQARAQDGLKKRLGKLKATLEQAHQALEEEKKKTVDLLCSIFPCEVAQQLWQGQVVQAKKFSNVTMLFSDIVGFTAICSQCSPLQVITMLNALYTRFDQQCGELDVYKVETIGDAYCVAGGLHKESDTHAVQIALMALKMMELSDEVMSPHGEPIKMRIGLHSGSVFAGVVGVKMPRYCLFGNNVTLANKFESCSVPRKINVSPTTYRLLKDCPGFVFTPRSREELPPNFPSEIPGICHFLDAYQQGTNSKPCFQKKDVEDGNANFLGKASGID
T1 sequence (Q02153 1-619): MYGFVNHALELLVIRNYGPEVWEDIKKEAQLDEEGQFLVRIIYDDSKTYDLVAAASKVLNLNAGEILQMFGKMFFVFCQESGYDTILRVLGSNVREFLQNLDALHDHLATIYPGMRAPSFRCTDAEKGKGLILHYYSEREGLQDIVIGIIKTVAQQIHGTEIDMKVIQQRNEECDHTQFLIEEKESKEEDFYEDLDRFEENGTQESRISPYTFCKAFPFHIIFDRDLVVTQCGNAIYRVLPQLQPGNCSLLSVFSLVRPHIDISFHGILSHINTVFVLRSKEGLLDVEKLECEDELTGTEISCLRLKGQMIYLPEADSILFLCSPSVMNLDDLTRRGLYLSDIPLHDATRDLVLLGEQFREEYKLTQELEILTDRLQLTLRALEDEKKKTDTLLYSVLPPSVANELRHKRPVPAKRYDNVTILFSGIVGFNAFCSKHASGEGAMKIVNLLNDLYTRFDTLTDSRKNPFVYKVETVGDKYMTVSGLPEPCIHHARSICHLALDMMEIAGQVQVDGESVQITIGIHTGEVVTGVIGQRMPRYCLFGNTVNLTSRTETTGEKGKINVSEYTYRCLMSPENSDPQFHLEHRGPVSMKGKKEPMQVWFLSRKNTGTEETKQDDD
Description: Cell-Based sGC Functional Assay (CASA Assay), cGMP generation in CHO-K1/sGC cells. The settings on record: maximum cGMP production of Compound A set to 100% activation, read-out: % Act. (percent activation relative to Compound A). From the text:
sGC is a heme-containing enzyme that converts GTP to secondary messenger cGMP. Increases in cGMP levels affect several physiological processes including vasorelaxation through multiple downstream pathways. […] Heme-dependent activators (HDAs) preferentially activate sGC containing a ferrous heme group. To determine the effect of sGC activators on enzyme activity, the CASA assay was developed to monitor the generation of cGMP in a cell line that stably expresses the heterodimeric sGC protein.
A CHO-K1 cell line stably expressing the sGC α1/β1 heterodimer was generated using a standard transfection protocol. CHO-K1 cells were transfected with plasmids pIREShyghsGCα1 and pIRESneo-hsGCβ1 simultaneously using FUGENE reagent. Clones that stably express both subunits were selected with hygromycin and neomycin for ˜2 weeks. Clone #7 was chosen for the assay and was designated CHO-K1/sGC. CHO-K1/sGC cells were maintained in F-K12 medium containing 10% heat-inactivated Fetal Bovine Serum (FBS), 100 μg/mL penicillin/streptomycin, 0.5 mg/mL hygromycin and 0.25 mg/mL G418. The cells were then cryopreserved in LN2. On the day of the assay, cells thawed and resuspended in EBSS Assay Buffer (Sigma, E3024) supplemented with 5 mM MgCl2, 10 mM HEPES (4-(2-hydroxyethyl)piperazine-1-ethanesulfonic acid) and 0.05% BSA (bovine serum albumin) (EAB) and cell density was then adjusted to 4×10^5/mL with EAB. IBMX (3-isobutyl-1-methylxanthin, 0.5 mM) was added to inhibit degradation of cGMP. Compounds were diluted from DMSO stock solutions and added to the assay at a final DMSO concentration of 2.5%. Cells were incubated with compounds in the presence and absence of 1 μM of Diethylenetriamine/nitric oxide adduct (DETA-NO; Sigma, 17018) for 1 hr at 37° C. At the end of the incubation period, the reaction was terminated and the cells were lysed with the detection reagents from Cisbio Kits. The level of intracellular cGMP was determined using an HTRF-based assay kit (CisBio, 62GM2PEC), which detects the displacement of a fluorescence labeled cGMP from its specific antibody. The cGMP produced by test compounds was directly compared to the maximum cGMP production (this value was set to equal 100% activation.) of the published sGC-HDA Compound A:
[drawing 298] (Example 1 in WO 2010/065275, published Jun. 10, 2010). The test compounds' activities were then expressed as a percentage of Compound A, the standard in every experiment. This percent activation was calculated either in the presence or absence of DETA-NO which was then plotted. IP and maximum fold induction was derived using ADA analysis software for 4P fit.

On to `CC1(c2ccc(C#N)cn2)C(=O)Nc2nc(-c3cn4ncnc4c(CCCC(F)(F)F)n3)nc(N)c21` (stereo not drawn) [Example 48A, 6-(4-amino-5-methyl-6-oxo-2-(8-(4,4,4-trifluorobutyl)-[1,2,4]triazolo[1,5-a]pyrazin-6-yl)-6,7-dihydro-5H-pyrrolo[2,3-d]pyrimidin-5-yl)nicotinonitrile], for which the Emax turned out to be 85%.

`CC1(c2cnc(C(F)(F)F)cn2)C(=O)Nc2nc(-c3cn4ncnc4c(CCCC(F)(F)F)n3)nc(N)c21` (stereo not drawn) [Example 50B, 4-amino-5-methyl-2-(8-(4,4,4-trifluorobutyl)-[1,2,4]triazolo[1,5-a]pyrazin-6-yl)-5-(5-(trifluoromethyl)pyrazin-2-yl)-5H-pyrrolo[2,3-d]pyrimidin-6(7H)-one]: the Emax was found to be 191%.

`CCCc1nc(-c2nc(N)c3c(n2)NC(=O)[C@@]3(C)c2ccc(F)cc2)cn2ncnc12` [Example 52A, (S)-4-amino-5-(4-fluorophenyl)-5-methyl-2-(8-propyl-[1,2,4]triazolo[1,5-a]pyrazin-6-yl)-5,7-dihydro-6H-pyrrolo[2,3-d]pyrimidin-6-one]: the Emax worked out at 96%.

With `CCCc1nc(-c2nc(N)c3c(n2)NC(=O)C3(C)c2ccc(Cl)cc2)cn2ncnc12` (stereo not drawn) [Example 53A, 4-amino-5-(4-chlorophenyl)-5-methyl-2-(8-propyl-[1,2,4]triazolo[1,5-a]pyrazin-6-yl)-5H-pyrrolo[2,3-d]pyrimidin-6(7H)-one], the Emax turned out to be 122%.

For `CCCc1nc(-c2nc(N)c3c(n2)NC(=O)C3(C)c2ccc(F)cn2)cn2ncnc12` (stereo not drawn) [Example 54B, 4-amino-5-(5-fluoropyridin-2-yl)-5-methyl-2-(8-propyl-[1,2,4]triazolo[1,5-a]pyrazin-6-yl)-5H-pyrrolo[2,3-d]pyrimidin-6(7H)-one], the Emax turned out to be 210%.

Take `CCCc1nc(-c2nc(N)c3c(n2)NC(=O)C3(C)c2ccc(Cl)c(F)c2)cn2ncnc12` (stereo not drawn) [Example 55B]: the Emax amounted to 99%.

On to `CCCc1nc(-c2nc(N)c3c(n2)NC(=O)C3(c2ccc(Cl)cn2)C2CC2)cn2ncnc12` (stereo not drawn) [Example 57A, 4-amino-5-(5-chloropyridin-2-yl)-5-cyclopropyl-2-(8-propyl-[1,2,4]triazolo[1,5-a]pyrazin-6-yl)-5H-pyrrolo[2,3-d]pyrimidin-6(7H)-one], for which the Emax was determined as 119%.

Turning to `CCCc1nc(-c2nc(N)c3c(n2)NC(=O)C3(c2ccc(F)c(F)c2)C2CC2)cn2ncnc12` (stereo not drawn) [Example 58A, 4-amino-5-cyclopropyl-5-(3,4-difluorophenyl)-2-(8-propyl-[1,2,4]triazolo[1,5-a]pyrazin-6-yl)-5H-pyrrolo[2,3-d]pyrimidin-6(7H)-one], the Emax was determined as 169%.

For `CCCc1nc(-c2nc(N)c3c(n2)NC(=O)C3(c2ccc(F)cn2)C2CC2)cn2ncnc12` (stereo not drawn) [Example 59A, 4-amino-5-cyclopropyl-5-(5-fluoropyridin-2-yl)-2-(8-propyl-[1,2,4]triazolo[1,5-a]pyrazin-6-yl)-5H-pyrrolo[2,3-d]pyrimidin-6(7H)-one], the Emax worked out at 119%.

With `CCCCc1nc(-c2nc(N)c3c(n2)NC(=O)C3(C)c2ccc(Cl)c(F)c2)cn2ncnc12` (stereo not drawn) [Example 62B, 4-amino-2-(8-butyl-[1,2,4]triazolo[1,5-a]pyrazin-6-yl)-5-(4-chloro-3-fluorophenyl)-5-methyl-5H-pyrrolo[2,3-d]pyrimidin-6(7H)-one], the Emax was determined as 267%.

Regarding `CCCCc1nc(-c2nc(N)c3c(n2)NC(=O)C3(C)c2ccc(Cl)cc2)cn2ncnc12` (stereo not drawn) [Example 63A, 4-amino-2-(8-butyl-[1,2,4]triazolo[1,5-a]pyrazin-6-yl)-5-(4-chlorophenyl)-5-methyl-5H-pyrrolo[2,3-d]pyrimidin-6(7H)-one], the Emax stood at 187%.

For `CCCCc1nc(-c2nc(N)c3c(n2)NC(=O)C3(C)c2ccc(F)c(F)c2)cn2ncnc12` (stereo not drawn) [Example 64B, 4-amino-2-(8-butyl-[1,2,4]triazolo[1,5-a]pyrazin-6-yl)-5-(3,4-difluorophenyl)-5-methyl-5H-pyrrolo[2,3-d]pyrimidin-6(7H)-one], the Emax amounted to 90%.

Turning to `CCCCc1nc(-c2nc(N)c3c(n2)NC(=O)C3(c2ccc(F)cn2)C2CC2)cn2ncnc12` (stereo not drawn) [Example 66A, 4-amino-2-(8-butyl-[1,2,4]triazolo[1,5-a]pyrazin-6-yl)-5-cyclopropyl-5-(5-fluoropyridin-2-yl)-5H-pyrrolo[2,3-d]pyrimidin-6(7H)-one], the Emax worked out at 162%.

In the case of `CCCCc1nc(-c2nc(N)c3c(n2)NC(=O)C3(c2ccc(Cl)cn2)C2CC2)cn2ncnc12` (stereo not drawn) [Example 68A, 4-amino-2-(8-butyl-[1,2,4]triazolo[1,5-a]pyrazin-6-yl)-5-(5-chloropyridin-2-yl)-5-cyclopropyl-5H-pyrrolo[2,3-d]pyrimidin-6(7H)-one], the Emax is 113%.

`CCCCc1nc(-c2nc(N)c3c(n2)NC(=O)C3(C)c2ccc(Cl)cn2)cn2ncnc12` (stereo not drawn) [Example 69A, 4-amino-2-(8-butyl-[1,2,4]triazolo[1,5-a]pyrazin-6-yl)-5-(5-chloropyridin-2-yl)-5-methyl-5H-pyrrolo[2,3-d]pyrimidin-6(7H)-one]: the Emax was found to be 158%.

With `CCCCc1nc(-c2nc(N)c3c(n2)NC(=O)C3(c2ccc(C(F)(F)F)cn2)C2CC2)cn2ncnc12` (stereo not drawn) [Example 70A, 4-amino-2-(8-butyl-[1,2,4]triazolo[1,5-a]pyrazin-6-yl)-5-cyclopropyl-5-(5-(trifluoromethyl)pyridin-2-yl)-5H-pyrrolo[2,3-d]pyrimidin-6(7H)-one], the Emax was found to be 133%.

On to `CCCCc1nc(-c2nc(N)c3c(n2)NC(=O)C3(C)c2ccc(C)cn2)cn2ncnc12` (stereo not drawn) [Example 71B, 4-amino-2-(8-butyl-[1,2,4]triazolo[1,5-a]pyrazin-6-yl)-5-methyl-5-(5-methylpyridin-2-yl)-5H-pyrrolo[2,3-d)pyrimidin-6(7H)-one], for which the Emax was determined as 118%.

For the compound `CC1(c2ccc(Cl)c(F)c2)C(=O)Nc2nc(-c3cn4ncnc4c(CCC(F)(F)F)n3)nc(N)c21` (stereo not drawn) [Example 75B, 4-amino-5-(4-chloro-3-fluorophenyl)-5-methyl-2-(8-(3,3,3-trifluoropropyl)-[1,2,4]triazolo[1,5-a]pyrazin-6-yl)-5H-pyrrolo[2,3-d]pyrimidin-6(7H)-one], the Emax amounted to 136%.
